Assay results reported in article PMC7553701 (Toxicological Sciences, 2020).
≈ marks a conversion by molar mass, not a printed value. Entries after “also recorded” stand apart in the source; their conditions may differ. Like-named read-outs stand apart in the source and are kept apart here.

What was measured:
[1] = tested on: NRF2; test: HEK cell CYP450-dependent versus -independent NRF2 stabilization assay; type: cell-based, human; details: for NRF2 protein level in noninduced cells: HEK293/CYP cells without Dox; for NRF2 protein level in cells expressing other CYP isoforms: HEK293 cells expressing the other 7 CYP isoforms; for NRF2 activation with and without CYP450 expression: HEK-CYP cell lines, [− Dox] and [+ Dox]; for NRF2 activation: HEK Cyp3A4 and parental cell lines, up to 90 µM
[2] = tested on: NRF2/Keap1 and NRF1 coregulated gene network in rat liver; details: for BA-LRA score / BA-LRA outcome, day 1 single dose study: rat; for rat BA-LRA result: in vivo rat liver, threshold 0.22; for BA-LRA outcome, day 1 single dose study: day 1 single dose sample collection; for maximum daily dose (boundary) predicted from BA-LRA score: clinical daily dose
[3] = tested on: rat liver; test: BA-LRA score calculated from Open TG-GATEs Affymetrix GeneChip data; type: in vivo; details: 600 mkd, 24 h, Affymetrix platform; ref Igarashi et al., 2015
[4] = tested on: human hepatocytes; test: Covalent protein binding; type: in vitro ADME; details: radiolabeled drug
[5] = tested on: rat; test: Histopathology, clinical chemistry and tolerability in short-term rat studies; type: in vivo; details: oral gavage, high dose 500–750 mkd
[6] = tested on: Dog; test: 1-month dog toxicology study; type: in vivo; details: high dose with excessive body weight loss
[7] = tested on: HepG2; details: 24 h, HepG2 glucose-galactose shift; ref Xu et al., 2019; cited from earlier work
[8] = tested on: rat HepatoPac; test: Urea synthesis in rat HepatoPac cultures; type: cell-based; details: 9 days
[9] = Clinical studies: liver safety and exposure; details: human, in vivo, 900 mg
[10] = target: Cyp3A4 (Homo sapiens, UniProt P08684, DEL224-224/T224I/V225I); test: Cyp3A4 degradation in HEK Cyp3A4 cell line; type: cell-based; details: up to 90 µM
[11] = tested on: patients; details: ref Hargreaves and Olesen, 2019, cited from earlier work
[12] = tested on: human HepatoPac; test: Urea synthesis in human HepatoPac cultures; type: cell-based; details: 9 days of exposure
[13] = tested on: NHP; test: 9-month NHP toxicology study; type: in vivo; details: 9 months, highest dose tested
[14] = tested on: rat; test: 6-month rat toxicology study; type: in vivo; details: 6 months, highest dose tested
[15] = Biliary excretion; type: cell-based; details: human HepatoPac cultures, plasma or biological fluid
[16] = tested on: Mouse; test: 6-month mouse toxicology study; type: in vivo; details: 6 months, highest dose tested
[17] = tested on: human HepatoPac; details: ref Hafey et al., unpublished data, cited from earlier work
[18] = tested on: BSEP; details: siRNA BSEP KD rat; ref Li et al., 2019; cited from earlier work
[19] = tested on: rat hepatocyte micropatterned coculture model (HepatoPac); test: In vitro BA-LRA in rat HepatoPac; type: cell-based; details: 9 days, at 50 µM
[20] = tested on: bile salt export pump (BSEP); test: Bile salt export pump; type: biochemical; details: modeling a dose of 280 mg; ref Hafey et al., unpublished data
[21] = tested on: human HepatoPac; test: In vitro BA-LRA in human HepatoPac; type: cell-based; details: at 50 µM

CC(=O)Nc1ccc(O)cc1 [Acetaminophen]
NRF2 protein level in noninduced cells ([1]; 6 h): not apparent
NRF2 protein level in cells expressing other CYP isoforms [1]: not apparent
BA-LRA score ([2]; at 24 h (Figs. 2 and 3)): 0.54
BA-LRA score calculated from TG-GATEs data [3]: 0.32

CC1(C)CC[C@]2(C(=O)O)CC[C@]3(C)[C@H](C(=O)C=C4[C@@]5(C)C=C(C#N)C(=O)C(C)(C)[C@@H]5CC[C@]43C)[C@@H]2C1 [Bardoxolone]
NRF2 activation with and without CYP450 expression [1]: induced NRF2 activation in a similar fashion under both [− Dox] and [+ Dox] conditions

CN/C(=N/CCSCc1nc[nH]c1C)NC#N [Cimetidine]
covalent protein binding in human hepatocytes [4]: high CPB

Clc1ccccc1C(c1ccccc1)(c1ccccc1)n1ccnc1 [Clotrimazole]
tolerability of high repeat daily doses [5]: not tolerated

CN1CCN(C2=Nc3cc(Cl)ccc3Nc3ccccc32)CC1 [Clozapine]
rat BA-LRA result [2]: significant BA-LRA signal
BA-LRA outcome, day 1 single dose study [2]: BA-LRA positive

O=C(CN1C(=O)C2(CCCC2)NC[C@H]1c1cc(F)cc(F)c1)Nc1ccc2c(c1)C[C@@]1(C2)C(=O)Nc2ncccc21 [MK-3207]
Liver Findings [6]: Slight periportal vacuolation
NRF2 activation [1]: no CYP-dependent effect on NRF2 activation
mitochondrial toxicity [7]: No evidence for mitochondrial toxicity
maximum daily dose (boundary) predicted from BA-LRA score [2]: 300 mg
BA-LRA score ([2]; 600 mkd × 4-day, median signature score): 0.34
urea (mito fx) / urea synthesis [8]: lack of urea synthesis inhibition; also recorded: no effect on urea to 80 µM
AUC [9]: 60 µM·h
Cyp3A4 degradation [10]: clear dose-dependent effect on Cyp3A4 degradation
incidence of subjects with ALT rises > 3-fold ULN ([11]; Phase 2, 2 weeks, daily doses ≤ 100 mg (2/197)): 1%
patients with > 20-fold ALT rises ([11]; among the 5 patients dosed above 500 mg daily): 3
urea synthesis [12]: lack of urea synthesis inhibition
Liver Findings [13]: No liver safety signal at Highest Dose tested
Liver Findings [14]: No liver safety signal at Highest Dose tested
solubility [15]: 50 µM (≈ 27.9 µg/mL)
Liver Findings [16]: No liver safety signal at Highest Dose tested
biliary excretion of taurocholic acid ([17]; 50 µM): no significant impact

Cc1cnc(NC(=O)C2=C(O)c3ccccc3S(=O)(=O)N2C)s1 [Meloxicam]
tolerability of high repeat daily doses [5]: not tolerated

C/N=C(\S)NCCSCc1[nH]cnc1C [Metiamide]
rat BA-LRA result [2]: did not show a significant rat liver BA-LRA signal

Cc1cc2c(s1)Nc1ccccc1N=C2N1CCN(C)CC1 [Olanzapine]
BA-LRA outcome, day 1 single dose study [2]: InsfT
tolerability of high repeat daily doses [5]: not tolerated

Cc1c(-c2cnccn2)ssc1=S [Oltipraz, oltipraz]
NRF2 activation with and without CYP450 expression [1]: gave similar results

COc1ccc2[nH]c([S+]([O-])Cc3ncc(C)c(OC)c3C)nc2c1 (stereo not drawn) [Omeprazole]
NRF2 activation with and without CYP450 expression [1]: gave similar results

C[S+]([O-])CCCCN=C=S (stereo not drawn) [Sulforaphane, sulforaphane]
NRF2 activation with and without CYP450 expression [1]: gave similar results

CNS(=O)(=O)Cc1ccc2[nH]cc(CCN(C)C)c2c1 [Sumatriptan]
covalent protein binding in human hepatocytes [4]: high CPB

Nc1c2c(nc3ccccc13)CCCC2 [Tacrine]
tolerability of high repeat daily doses [5]: not tolerated

O=C(N[C@@H]1CC[C@@H](c2cccc(F)c2F)CN(CC(F)(F)F)C1=O)N1CCC(n2c(=O)[nH]c3ncccc32)CC1 [Telcagepant]
NRF2 activation [1]: no effect was seen
mitochondrial toxicity [7]: unlikely mechanism of concern
synergy expected for a BSEP inhibitor [18]: no evidence for synergy
maximum daily dose (boundary) predicted from BA-LRA score [2]: < 600 mg
BA-LRA score ([2]; 400 mkd × 4 days, peak score): 0.30
BA-LRA (in vitro) [19]: well exceeding the threshold of the assay
BA-LRA (in vitro) ([19]; listed as MK-0974/Telcagepant): > 0.2
urea (mito fx) / urea synthesis [8]: no inhibition of urea synthesis
urea (mito fx) / urea synthesis ([8]; listed as MK-0974/Telcagepant): no effect on urea to 100 µM
Cyp3A4 degradation [10]: no effect was seen
tolerability of high repeat daily doses [5]: poorly tolerated
covalent protein binding in human hepatocytes [4]: high covalent binding
exposure multiple of BSEP IC50 above calculated free unbound liver inlet Cmax [20]: 17.5 fold
urea synthesis [12]: no inhibition of urea synthesis
Liver Findings [13]: No liver safety signal at Highest Dose tested
Liver Findings [14]: No liver safety signal at Highest Dose tested
Liver Findings [16]: No liver safety signal at Highest Dose tested
in vitro BA-LRA transcriptional response to CRM responsive genes [21]: well exceeding the threshold of the assay
Biliary Excretion Index IC50 [17]: 16 µM

Clc1ccccc1CN1CCc2sccc2C1 [Ticlopidine]
NRF2 protein level in noninduced cells ([1]; 6 h): not in noninduced cells
NRF2 protein level in cells expressing other CYP isoforms [1]: no effects on the NRF2 protein level
concentration at which NRF2 activation begins ([1]; induced [+Dox] CYP2C9 expressing HEK293 cells, 6 h): approximately 25 µM

C[C@@H]1[C@H](c2ccccc2)C[C@H](NC(=O)c2cnc3c(c2)C[C@@]2(C3)C(=O)Nc3ncccc32)C(=O)N1CC(F)(F)F [Ubrogepant]
clinical liver safety profile ([11]; clinical trials): superior clinical liver safety profile
